From paper PMC11744769, “Modulation of the mechanism of action of antibacterial silver N-heterocyclic carbene complexes by variation of the halide ligand” (RSC Advances, 2025) come the findings set out here.

By pIC50 is commonly meant the negative decadic logarithm of the IC50, by convention in mol/L. A high value points to a small IC50.

pIC50: −log10 of the molar value.

T1 sequence (P0A9P4 2-321): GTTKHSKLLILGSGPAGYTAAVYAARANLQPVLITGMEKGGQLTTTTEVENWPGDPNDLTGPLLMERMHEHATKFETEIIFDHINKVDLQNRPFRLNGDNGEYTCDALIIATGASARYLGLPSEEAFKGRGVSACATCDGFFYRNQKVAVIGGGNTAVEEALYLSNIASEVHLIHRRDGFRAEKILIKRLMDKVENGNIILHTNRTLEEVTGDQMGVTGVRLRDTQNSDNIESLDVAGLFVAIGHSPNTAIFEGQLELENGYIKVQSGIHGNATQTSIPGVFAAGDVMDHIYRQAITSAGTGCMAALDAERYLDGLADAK

The assay addresses T1, thioredoxin reductase (TrxR) (Escherichia coli, UniProt P0A9P4).
T1 construct: gene trxB
Briefly: DTNB reduction kinetic assay with Trx and NADPH in lysates of treated E. coli DSM […] cells. Type of assay: cell-based.
With `CC(C)n1[c]([Ag-][Cl])[n+](Cc2ccccn2)c2ccccc21` [1-Cl], the negative-log IC50 (pIC50) was about 4.96.
As to `CC(C)n1[c]([Ag-][I])[n+](Cc2ccccn2)c2ccccc21` [1-I], the pIC50 is about 5.22.
Under `COCCn1[c]([Ag-][Cl])[n+](Cc2ccccn2)c2ccccc21` [2-Cl] stands about 4.96; under `COCCn1[c]([Ag-][I])[n+](Cc2ccccn2)c2ccccc21` [2-I], about 5.22.
